Data reported in US20190355440A1, “FLOW CYTOMETRY DATA […] ANTIMICROBIAL AGENT S[…]” (priority 2016, published 2019).

System: Enterobacteriaceae strains
Test: FCM-AST: flow cytometry fluorescence distribution (DiBAC4(3) membrane depolarization marker) of antibiotic-treated strains
Type: cell-based
Protocol: In a next step 22, liquid samples with different concentrations {C1, . . . , Cm} of the antibiotic are prepared for each of the selected strains Si, where C1=0 (no antibiotic) and m>2 is the number of non-null concentrations of antibiotic. Said concentrations are stored in the computer unit 14. […] After 2 h growth at 35° C. with shaking at 180 rpm, the resulting exponential phase bacterial culture is normalized at 0.5 McF and used to inoculate wells of a microtiterplate supplemented with antibiotics at the different concentrations {C1, . . . , Cm}. After 1 h of incubation at 35° C., a membrane depolarization fluorescent marker, for example (Bis-(1,3-Dibutylbarbituric Acid)Trimethine Oxonol), also known as “DiBAC4(3)”, is added to the wells at a final concentration of 0.5 μg/ml. An additional 15 min incubation with the marker is at 35° C. is then carried out. The concentrations {C1, . . . , Cm} are chosen such that the range [BPS, BPR] is included or equal to the range [C2, Cm] of non-null concentrations.
In the step 24, a FCM acquisition is performed for each sample by means of the flow-cytometer 12 and the corresponding FSC, SSC and fluorescence distributions stored in the computer unit 14. For each strain Si, and for each concentration Cj, a FSC distribution “FSCi,j”, a SSC distribution “SSCi,j” and a fluorescence distribution “FIi,j” are thus stored in the computer unit 14, e.g. in the form of digital vectors.
The experiment was performed as described in the following lines: • A panel of 107 Enterobacteriaceae strains (FIG. 6: Distribution of the panel of strains according to their MICs for Gentamicin) were treated with 0, 2, 4 and 8 mg/L of Gentamicin following the protocol described in FIG. 3 and analyzed by FCM.
In this experiment, we have made an evaluation of wide range of prediction models for Ceftazidime: • 128 Enterobacteriaceae strains (FIG. 9: Distribution of the panel of strains according to their MICs for Ceftazidime) were treated or not with four different concentrations of Ceftazidime (1, 2, 4 and 8 mg/L) using the FCM protocol described in FIG. 3; • FCM data were used to generate feature vectors as described above; • For each strategy (BPS, GS and GMS), 7 type of prediction models were built based on the feature vectors generated (FIG. 10: Number of predictions models generated. “FL1” means fluorescence); • The performance of all models were evaluated following cross validation as described above.

| Compound | fluorescence distribution of treated strains (inferred from poor performance of quantile models) (128 Enterobacteriaceae strains, 1, 2, 4 and 8 mg/L Ceftazidime) | fluorescence distribution profile vs untreated sample (intermediate phenotype strains, 2 mg/L Gentamicin) | fluorescence distribution profile vs untreated sample (intermediate phenotype strains, 4 and 8 mg/L Gentamicin) | resistant strains that did not show any shift in fluorescence (profile A) (resistant strains, all concentrations tested (2, 4, 8 mg/L)) | fluorescence distribution profile vs untreated sample (susceptible phenotype strains, panel of 107 strains, 2 mg/L Gentamicin) | fluorescence distribution profile vs untreated sample (susceptible phenotype strains, panel of 107 strains, 4 and 8 mg/L Gentamicin) |
| --- | --- | --- | --- | --- | --- | --- |
| CC(C)(O/N=C(\C(=O)N[C@@H]1C(=O)N2C(C(=O)[O-])=C(C[n+]3ccccc3)CS[C@H]12)c1csc(N)n1)C(=O)O [Ceftazidime] | the majority of strains treated with Ceftazidime exhibit homogeneous distributions of fluorescence |  |  |  |  |  |
| Gentamicin |  | more strains showed no shift of fluorescence (profile A) | equal number of strains exhibited either no shift (profile A) or heterogeneous fluorescence distribution (profile B) | 36 out of 37 | equal number of strains exhibited either no shift (profile A) or heterogeneous fluorescence distributions (profile B) | the majority of strains exhibited an heterogeneous fluorescence distribution (profile B) |
